The values below come from PMC10460844, “Real‐Time Monitoring of Multitarget Antimicrobial Mechanisms of Peptoids Using Label‐Free Imaging with Optical Diffraction Tomography” (Advanced Science, 2023).

≈ marks a conversion by molar mass, not a printed value. Where two headings read alike, the source gives them in different places.

The nature of data set [1]: Analytical reversed-phase HPLC elution (hydrophobicity). The conditions noted are these: analytical RP-HPLC, 1 mL/min, UV 220 nm; for HPLC elution: Table S1, SunFire C18, water/ACN + 0.1% TFA, 5 to 100% B linear over 30 min, approximate comparison of hydrophobicity. The class given is physicochemical. In short, it runs like this:
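Analytical reversed-phase HPLC on a C18 column (4.6 × 250 mm, 5 μm) at 1 mL/min, water/acetonitrile each with 0.1% TFA. Held at 5% B for 2 min, then linear to 100% B over 30 min and held 5 min, with UV detection at 220 nm; retention time (tR) serves as hydrophobicity measure.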

The subject of data set [2] is rat erythrocytes. Put plainly: Hemolysis assay. The data set is classed as cell-based. In short, it runs like this: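 Washed Sprague-Dawley rat erythrocytes (10% suspension in PBS pH 7.4) mixed with peptoids (0–100 µM), 60 min at 37 °C; supernatant A540 expressed as % of 1% Triton X-100 lysis. HC10/HC50 are concentrations giving 10%/50% hemolysis; Hmax is hemolysis at 100 µM.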

For data set [3] the following is noted: remark linked to increased retention time of N4hb peptoids.
The subject of data set [4] is human cells and animals. The settings on record: cited from earlier work.
Experimental: The antimicrobial, hemolytic, and cytotoxic activities of counter-ion-exchanged peptoids were evaluated (Table S3).
Data set [5] deals with E. coli ATCC 25922. The class given is cell-based, Escherichia coli. The settings on record: mean of triplicate. An outline of the steps: (§1)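 Broth microdilution in cation-adjusted MHB2 containing 0.001% acetic acid and 0.02% BSA, inoculum ≈2–5 × 10^5 CFU mL^−1 from a 3–4 h secondary culture. Peptoids tested at six two-fold dilutions from 25 µM, in triplicate. MIC taken as the lowest concentration preventing visible turbidity.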

Data set [6] deals with S. aureus ATCC 25923. The data set is classed as cell-based, Staphylococcus aureus. The settings on record: mean of triplicate. In short, it runs like this: as §1
In data set [7] the test system is E. faecalis KCTC 3511. The data set is classed as cell-based. The settings on record: KCTC 3511.
For data set [8], the system named is S. typhimurium SL 1344. The class given is cell-based. The settings on record: SL 1344.
For data set [9], the system named is P. aeruginosa MDR-198. The data set is classed as cell-based.
In data set [10] the test system is E. coli ESBL 63103. The class given is cell-based.
Data set [11] relates to K. pneumonia ESBL 61962. The class given is cell-based.
Data set [12] deals with S. aureus MRSA C623. The data set is classed as cell-based.
Data set [13] relates to E. coli ATCC 25922. In words: NPN uptake assay (outer membrane). The data set is classed as cell-based. The settings on record: E. coli ATCC 25922, 5 mM HEPES pH 7.2, 10 µM NPN, fluorescence. The method, then:
14. In vitro biological assays […]
The ability of peptoids to increase the permeability of the outer membrane of Gram-negative bacteria was determined by measuring the incorporation of the NPN fluorescent dye into the outer membrane of E. coli ATCC 25922. Bacterial cells were suspended to a final concentration of OD600 = 0.05 in 5 mM HEPES buffer, pH 7.2, containing 5 mM KCN. Then […]
200 μL NPN dye was added to wells of a 96 well plate to produce a final concentration of 10 μM, and the background fluorescence was recorded (λex = 350 nm, λem = 420 nm). Aliquots of peptoids were added to the well, and fluorescence was recorded as a function of time until there was no further increase in fluorescence. Increases of the permeability of the outer membrane after the addition of peptoids was reflected by increased fluorescence values as a result of NPN incorporation into the membrane. […]

Data set [14] concerns E. coli ML-35 cells. Put plainly: ONPG hydrolysis assay (inner membrane). The class given is cell-based. The conditions noted are these: 1.5 mM ONPG, 10 mM sodium phosphate pH 7.4, absorbance 405 nm. The method, then:
The permeability of the inner membrane was determined using E. coli ML-35 cells […]
The intact bacterial inner membrane is non-permeable to o-nitrophenyl-β-D-galactopyranoside (OPNG), a chromogenic substrate of the β-galactosidase.
Following damage to the inner membrane, OPNG enters the cells and is metabolized by β-galactosidase creating a chromogenic […]. E. coli cells were washed in 10 mM sodium phosphate (pH 7.4) containing 100 mM NaCl and resuspended in the same buffer at a final concentration of OD600 = 0.5 containing 1.5 mM ONPG. The hydrolysis of ONPG and generation of o-nitrophenol over time were monitored as absorbance change at 405 nm following the addition of peptoids. […]

The mark [15] stands for this setting: Table S2, broth dilution, MHB2, 37 °C 24 h, max 25 µM.

Take `C[C@@H](c1ccccc1)N(CC(N)=O)C(=O)CN(CCCCN)C(=O)CN(C(=O)CN(C(=O)CN(CCCCN)C(=O)CN(C(=O)CN(CCCCN)C(=O)CN(CCCCN)C(=O)CN(C(=O)CN(C(=O)CN(CCCCN)C(=O)CN(C(=O)CNCCc1c[nH]c2ccccc12)[C@@H](C)c1ccccc1)[C@@H](C)c1ccccc1)[C@@H](C)c1ccccc1)[C@@H](C)c1ccccc1)[C@@H](C)c1ccccc1)[C@@H](C)c1ccccc1` [peptoid 63]: the HPLC elution in [1] worked out at 49.9 % MeCN. Further, the “Hmax (100 µM)” value in [2] amounted to 12.7±0.9%. In addition, in data set [2] (pH 7.4), the HC10 is on record as 85.0 µM and the 50% haemolytic concentration (HC50) (in general, the concentration giving 50% haemolysis) is above 100 µM. For the same compound, in data set [3], the aqueous solubility entry is reported as “poor aqueous”.

With KKIRVRLSA [M33-TFA], the “toxicity of M33-TFA above that of M33-AcOH” value in data set [4] was 5-30%.

On to `C[C@@H](c1ccccc1)N(CC(N)=O)C(=O)CN(CCCCN)C(=O)CN(C(=O)CN(C(=O)CN(CCCCN)C(=O)CN(C(=O)CN(C(=O)CN(CCCCN)C(=O)CN(C(=O)CN(CCCCN)C(=O)CN(CCCCN)C(=O)CN(C(=O)CNCCc1c[nH]c2ccccc12)[C@@H](C)c1ccccc1)[C@@H](C)c1ccccc1)[C@@H](C)c1ccccc1)[C@@H](C)c1ccccc1)[C@@H](C)c1ccccc1)[C@@H](C)c1ccccc1` [peptoid 64], for which the HPLC elution in data set [1] is on record as 50.5 % MeCN. In data set [2], the “Hmax (100 µM)” value was found to be 18.9±2.9%. In data set [2] (pH 7.4), this compound showed an HC10 of 70.7 µM and a concentration for 50% haemolysis (HC50) above 100 µM. In addition, the aqueous solubility entry in data set [3] is “poor aqueous”.

In the case of `C[C@@H](c1ccccc1)N(CC(N)=O)C(=O)CN(CCCCN)C(=O)CN(CCCCN)C(=O)CN(C(=O)CN(C(=O)CN(CCCCN)C(=O)CN(C(=O)CN(C(=O)CN(CCCCN)C(=O)CN(CCc1c[nH]c2ccccc12)C(=O)CN(CCc1c[nH]c2ccccc12)C(=O)CNCCCCN)[C@@H](C)c1ccccc1)[C@@H](C)c1ccccc1)[C@@H](C)c1ccccc1)[C@@H](C)c1ccccc1` [peptoid 32], in [1] (Table 1, SunFire C18 […] 250 mm, water/ACN + 0.1% TFA, 5% B 2 min then linear to 100% B over 30 min, used as measure of hydrophobicity), the “HPLC elution (%ACN)” value was found to be 48.4 %ACN. In addition, the “MIC E. coli ATCC25922” value was found to be 6.3 µM (≈ 11.7 µg/mL) in [5] (setting [15]) and 6.3 µM in data set [5] (Table S3, counter-ion exchange series (TFA, HCl, AcOH salts)). Further, the “MIC S. aureus ATCC25923” value in [6] (setting [15]) amounted to 3.1 µM (≈ 5.78 µg/mL); in [6] (Table S3, counter-ion exchange series), 3.1 µM (≈ 5.78 µg/mL). The “Hmax (100 µM)” value in [2] was found to be 4.2±1.0%. The values for the HC10 in data set [2] (pH 7.4) and in data set [2] (red cells of rat) were 77.7 µM and above 100 µM, respectively. The same compound had an HC50 in data set [2] (pH 7.4) above 100 µM. Also, the “H max (100 µM)” value in data set [2] (percentage of hemolysis at the highest concentration tested (100 µM), rat erythrocytes) came to 15.9 ± 1.5%. The “MIC E. faecalis KCTC 3511” value in data set [7] was found to be 6.3 µM (≈ 11.7 µg/mL). Moreover, the “MIC S. typhimurium SL 1344” value in data set [8] is 6.3 µM (≈ 11.7 µg/mL). Moreover, in [9], the “MIC P. aeruginosa MDR-198” value was 6.3 to 12.5 µM. Further, in data set [10], the “MIC E. coli ESBL 63103” value was in the range of 12.5 to 25 µM. Further, the “MIC K. pneumonia ESBL 61962” value in data set [11] fell in the range of 12.5 to 25 µM. Also, the “MIC S. aureus MRSA C623” value in [12] is 3.1 to 6.3 µM. Also, the “outer membrane disruption (NPN uptake)” value in data set [13] was “somewhat lower”. Besides, the “inner membrane disruption (ONPG hydrolysis)” value in data set [14] is given as “lower than that seen with more hydrophobic peptoids”.
